Where two headings read alike, the source gives them in different places.
Tested on: acyl-coenzyme A: cholesterol acyltransferase
Test: Inhibition of ACAT / intracellular cholesterol esterification in vitro (procedure of Ross et al.)
Type: cell-based

| SMILES | % Inhibition (25 μM) [%] | IC50 (read-out: IC50) [nM] | % Inhibition (50 μM) [%] | IC50 [nM] | % Inhibition (concentration not given) [%] |
| --- | --- | --- | --- | --- | --- |
| CCCCCC(C)N(Cc1ccc(CC(C)C)cc1)C(Nc1cc(C(C)(C)C)c(O)c(C(C)(C)C)c1)=C1C(=O)OC(C)(C)OC1=O (stereo not shown) [Compound 13] | 99 | 190 | – | – | – |
| CCCCCCCN(Cc1ccc(CCCCCC)cc1)C(Nc1ccc(F)cc1F)=C1C(=O)OC(C)(C)OC1=O [Compound 18, 5-[[(2,4-Difluorophenyl)amino][[(4-hexylphenyl)methyl]heptylamino]methylene]-2,2-dimethyl-1,3-dioxane-4,6-dione] | – | – | 60 | – | – |
| CCCCCCCN(Cc1ccc(C(C)(C)C)cc1)C(Nc1ccc(OCCCCC)cc1)=C1C(=O)OC(C)(C)OC1=O [Compound 24] | 96 | 2300 | – | – | – |
| CCCCCCCN(Cc1ccc(C(C)(C)C)cc1)C(Nc1ccc(OCCCCCC)cc1)=C1C(=O)OC(C)(C)OC1=O [Compound 25, 5-[[[[4-(1,1-Dimethylethyl)phenyl]methyl]heptylamino][[4-(hexyloxy)phenyl]amino]methylene]2,2-dimethyl-3-dioxane-4,6-dione] | 94 | 500 | – | – | – |
| CCCCCC(C)N(Cc1ccc(OCC(C)C)cc1)C(Nc1ccc(C)cc1C)=C1C(=O)OC(C)(C)OC1=O (stereo not shown) [Compound 68] | 98 | 280 | – | – | – |
| COc1ccc(NC(=C2C(=O)OC(C)(C)OC2=O)N(Cc2ccc(CC(C)C)cc2)[C@@H](CO[Si](C)(C)C(C)(C)C)Cc2ccccc2)c(OC)c1 [Compound 11] | 98 | – | – | 2800 | – |
| CCCCCCN(CCCCCC)C(Nc1ccc(F)cc1)=C1C(=O)OC(C)(C)OC1=O [Compound 3, 5-[(Dihexylamino)[(4-fluorophenyl)amino]methylene]-2,2-dimethyl-1,3-dioxane-4,6-dione] | – | 9000 | 77 | – | – |
| CCCCC(CC)N(Cc1ccc(CC(C)(C)C)cc1)C(Nc1ccc(N(C)C)cc1)=C1C(=O)OC(C)(C)OC1=O (stereo not shown) [Compound 62] | 99 | 640 | – | – | – |
| CCCCCC(C)N(Cc1ccc(OCC(C)C)cc1)C(Nc1ccc(N(C)C)cc1)=C1C(=O)OC(C)(C)OC1=O (stereo not shown) [Compound 63] | 99 | 90 | – | – | – |
| CC(C)CCc1ccc(CN(C(Nc2ccc(N(C)C)cc2)=C2C(=O)OC(C)(C)OC2=O)C(CC(C)C)CC(C)C)cc1 [Compound 73, 5-[[[4-(Dimethylamino)phenyl]amino][[[4-(3-methylbutyl)phenyl]methyl][3-methyl-1-(2-methylpropyl)butyl]amino]methylene]-2,2-dimethyl-1,3-dioxane-4,6-dione] | 97 | 1300 | – | – | – |
| CCCCCC(C)N(Cc1ccc(CCC(C)C)cc1)C(Nc1ccc(N(C)C)cc1C)=C1C(=O)OC(C)(C)OC1=O (stereo not shown) [Compound 61] | 98 | 160 | – | – | – |
| CCCCCC(C)N(Cc1ccc(CCC(C)C)cc1)C(Nc1ccc(OC)cc1OC)=C1C(=O)OC(C)(C)OC1=O (stereo not shown) [Compound 56, 5-[[(2,4-Dimethoxyphenyl)amino][[[4-(3-methylbutyl)phenyl]methyl](1-methylhexyl)amino]-methylene]-2,2-dimethyl-1,3-dioxane-4,6-dione] | 97 | 1400 | – | – | – |
| COc1ccc(NC(=C2C(=O)OC(C)(C)OC2=O)N(Cc2ccc(CCC(C)C)cc2)C(CC(C)C)CC(C)C)c(OC)c1 [Compound 72, 5-[[(2,4-Dimethoxyphenyl)amino][[[4-(3-methylbutyl)phenyl]methyl][-3-methyl-1-(2-methylpropyl)butyl]amino]methylene]-2,2-dimethyl-1,3-dioxane-4,6-dione] | 98 | 1300 | – | – | – |
| CCCCc1ccc(CN(C(Nc2ccc(OC)cc2OC)=C2C(=O)OC(C)(C)OC2=O)C(C)CCCC(C)(C)O)cc1 (stereo not shown) [Compound 44, 5-[[[(4-Butylphenyl)methyl](5-hydroxy-1,5-dimethylhexyl)amino][(2,4-dimethoxyphenyl)-amino]methylene]-2,2-dimethyl-1,3-dioxane-4,6-dione] | 82 | 15000 | – | – | – |
| CCCCCCCN(Cc1ccc(OCCC(C)C)cc1)C(Nc1cc(OC)c(OC)c(OC)c1)=C1C(=O)OC(C)(C)OC1=O [Compound 23] | 85 | 3500 | – | – | – |
| CCCCCCCN(Cc1ccc(C(C)(C)C)cc1)C(Nc1cc(OC)c(OC)c(OC)c1)=C1C(=O)OC(C)(C)OC1=O [Compound 69] | 98 | 2800 | – | – | – |

| SMILES | % Inhibition (25 μM) [%] | IC50 (read-out: IC50) [nM] | % Inhibition (50 μM) [%] | IC50 [nM] | % Inhibition (concentration not given) [%] |
| --- | --- | --- | --- | --- | --- |
| CCCCCCCN(Cc1ccc(C(C)(C)C)cc1)C(Nc1ccc(C(F)(F)F)cc1)=C1C(=O)OC(C)(C)OC1=O [Compound 30, 5-[[[[4-(1,1-Dimethylethyl)phenyl]methyl]heptylamino][[4-(trifluoromethyl)phenyl]amino]-methylene]-2,2-dimethyl-1,3-dioxane-4,6-dione] | 42 | – | – | – | – |
| CCCCCCCN(Cc1ccc(C(C)(C)C)cc1)C(Nc1c(C)cc(N(C)C)cc1C)=C1C(=O)OC(C)(C)OC1=O [Compound 16, 5-[[[4-(Dimethylamino)-2,6-dimethylphenyl]amino][[[4-(1,1-dimethylethyl)phenyl]methyl]heptylamino]methylene]-2,2-dimethyl-1,3-dioxane-4,6-dione] | 84 | 980 | – | – | – |
| CCCCC(CC)N(Cc1ccc(CC(C)(C)C)cc1)C(Nc1ccc(OC)cc1OC)=C1C(=O)OC(C)(C)OC1=O (stereo not shown) [Compound 60, 5-[[(2,4-Dimethoxyphenyl)amino][[[4-(2,2-dimethylpropyl)phenyl]methyl](1-ethylpentyl)amino]-methylene]-2,2-dimethyl-1,3-dioxane-4,6-dione] | 99 | 540 | – | – | – |
| CCCCC(CC)N(Cc1ccc(CC(C)(C)C)cc1)C(Nc1ccc(N(C)C)cc1C)=C1C(=O)OC(C)(C)OC1=O (stereo not shown) [Compound 66, 5-[[[4-(Dimethylamino)-2-methylphenyl]amino][[[4-(2,2-dimethylpropyl)phenyl]methyl](1-ethylpentyl)amino]methylene]-2,2-dimethyl-1,3-dioxane-4,6-dione] | 98 | 190 | – | – | – |
| CN(C(Nc1cc(C(C)(C)C)c(O)c(C(C)(C)C)c1)=C1C(=O)OC(C)(C)OC1=O)c1ccccn1 [Compound 83] | – | – | 86 | – | – |
| COc1ccc(NC(=C2C(=O)OC(C)(C)OC2=O)N(Cc2ccc(CC(C)C)cc2)C(C)CN2CCOCC2)c(OC)c1 (stereo not shown) [Compound 50, 5-[[(2,4-Dimethoxyphenyl)amino][[1-methyl-2-(4-morpholinyl)ethyl][[4-(2-methylpropyl)-phenyl]methyl]amino]methylene]-2,2-dimethyl-1,3-dioxane-4,6-dione] | 74 | – | – | – | – |
| CCCCCC(C)N(Cc1ccc(C(C)(C)C)cc1)C(Nc1cc(OC)c(OC)c(OC)c1)=C1C(=O)OC(C)(C)OC1=O (stereo not shown) [Compound 20] | 96 | 770 | – | – | – |
| CC(C)Cc1ccc(CN(C(Nc2ccc(N(C)C)cc2)=C2C(=O)OC(C)(C)OC2=O)C2CCN(Cc3ccccc3)CC2)cc1 [Compound 49, 5-[[[4-(Dimethylamino)phenyl]amino][[[4-(2-methylpropyl)phenyl]methyl][1-(phenylmethyl)-4-piperidinyl]amino]methylene]-2,2-dimethyl-1,3-dioxane-4,6-dione] | 80 | 4500 | – | – | – |
| COc1ccc(NC(=C2C(=O)OC(C)(C)OC2=O)N(Cc2ccc(CC(C)C)cc2)[C@@H](CO)CC(C)C)c(OC)c1 [Compound 74, (R)-5-[[(2,4-Dimethoxyphenyl)amino][[1-(hydroxymethyl)-3-methylbutyl][[4-(2-methylpropyl)-phenyl]methyl]amino]methylene]-2,2-dimethyl-1,3-dioxane-4,6,-dione] | – | 290 | – | – | 97 |
| CCCCCCCN(Cc1ccc(C(C)(C)C)cc1)C(Nc1ccc(F)cc1)=C1C(=O)OC(C)(C)OC1=O [Compound 67] | – | 4500 | 89 | – | – |
| CCCCCCCN(Cc1ccc(C(C)(C)C)cc1)C(Nc1ccc(OCCCC)cc1)=C1C(=O)OC(C)(C)OC1=O [Compound 19] | 98 | 2400 | – | – | – |
| CCCCCC(C)N(Cc1ccc(CC(C)(C)C)cc1)C(Nc1ccc(C)cc1C)=C1C(=O)OC(C)(C)OC1=O (stereo not shown) [Compound 64] | 99 | 490 | – | – | – |
| COc1ccc(NC(NCC2(c3ccccc3)CCCC2)=C2C(=O)OC(C)(C)OC2=O)c(OC)c1 [Compound 9, 5-[[(2,4-Dimethoxyphenyl)amino][[(1-phenylcyclopentyl)methyl]amino]methylene]-2,2-dimethyl-1,3-dioxane-4,6-dione] | 98 | 5600 | – | – | – |
| COc1ccc(NC(=C2C(=O)OC(C)(C)OC2=O)N(Cc2ccc(CC(C)(C)C)cc2)CC2(c3ccccc3)CCCC2)c(OC)c1 [Compound 10, 5-[[(2,4-Dimethoxyphenyl)amino][[[4-(2,2-dimethylpropyl)phenyl]methyl)][(1-penylcyclo-pentylmethyl]amino]methylene]-2,2-dimethyl-3-dioxane-4,6-dione] | 97 | 290 | – | – | – |
| CCCCCC(C)N(Cc1ccc(OCC(C)C)cc1)C(Nc1ccc(OC)cc1OC)=C1C(=O)OC(C)(C)OC1=O (stereo not shown) [Compound 58, 5-[[(2,4-Dimethoxyphenyl)amino][(1-methylhexyl)[[4-(2-methylpropoxy)phenyl]methyl]-amino]methylene]-2,2-dimethyl-1,3-dioxane-4,6-dione] | 99 | 550 | – | – | – |
